Here are results for 2 compounds from patent US20050209336A1, “EP2 receptor agonists” (priority 2003, published 2005).

The target in one assay is T1, human EP1 receptor (Homo sapiens, UniProt P34995).
T1 construct: expressed in transfected cells
T1 sequence (P34995 1-402): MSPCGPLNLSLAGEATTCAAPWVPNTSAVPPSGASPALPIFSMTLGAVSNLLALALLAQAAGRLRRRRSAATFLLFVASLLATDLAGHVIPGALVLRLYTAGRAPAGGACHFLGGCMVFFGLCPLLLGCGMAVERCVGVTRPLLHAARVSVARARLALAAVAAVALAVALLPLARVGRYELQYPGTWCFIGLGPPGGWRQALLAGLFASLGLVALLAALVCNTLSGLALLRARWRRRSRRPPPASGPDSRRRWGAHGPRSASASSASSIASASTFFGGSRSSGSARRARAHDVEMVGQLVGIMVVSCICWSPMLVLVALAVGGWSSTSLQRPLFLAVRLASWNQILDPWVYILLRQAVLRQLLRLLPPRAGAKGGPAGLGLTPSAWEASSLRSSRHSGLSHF
As to the kind of experiment: Radioligand ([3H]PGE2) competition displacement binding, human EP1 receptor membranes. The following applies: [3H]PGE2 displacement, read-out: pKi EP1 (converted). On the procedure:
Membranes were prepared from cells stably transfected with human EP receptor cDNA. In brief, cells were cultured to confluency, scraped from culture flasks, and centrifuged (800 g, 8 minutes, 4° C.). Cells were twice washed in ice cold homogenisation buffer containing 10 mMTris-HCl, 1 mM EDTA.2Na, 250 mM sucrose, 1 mM PMSF, 0.3 mM indomethacin, pH 7.4, homogenised and re-centrifuged as before. The supernatant was stored on ice and pellets re-homogenised and re-spun. Supernatants were pooled and centrifuged at 40000 g, 10 minutes, 4° C. Resultant membrane pellets were stored at −80° C. until use.
For assay, membranes expressing human EP4, EP3, EP2 or EP1 receptors were incubated in Millipore (MHVBN45) plates containing assay buffer, radiolabelled [^3H]PGE2 and 0.1 to 10 000 nM concentrations of compounds. Incubations were performed at suitable temperatures and for suitable times to allow equilibrium to be reached. Non-specific binding was determined in the presence of 10 uM PGE2. Bound and free radiolabel was separated by vacuum manifold filtration using appropriate wash buffers, and bound radiolabel was determined by scintillation counting. Constituents of each of the buffers are included in table 4 below.
The affinity or pKi of each compound for each receptor was calculated from the concentration causing 50% radioligand displacement (IC50) using the Cheng-Prusoff equation: [formula] […]

In assay [1] the test system is TNFα production by alveolar macrophages. The assay is described as follows: Alveolar macrophage assay: LPS-induced TNFα release. It counts as cell-based, human. The conditions noted are these: Homo sapiens, Macrophage, inhibition of TNFα production, LPS 1 μg/ml, 24 h, mean of three donors. On the procedure: Human lung parenchyma was cut into small pieces and perfused with ice-cold phosphate buffered saline (PBS) to remove contaminating blood and mucus. The tissues were then chopped with scissors in the presence of Minimum Essential Medium supplemented with penicillin, streptomycin, L-glutamine and DNase (0.25 mg/ml). The chopped tissues were shaken gently to dislodge the macrophages. A crude cell suspension was then obtained by the removal of the tissues with a sterile filter (150 μm pore size). The resulting cell suspension was spun and the cell pellet collected. Contaminating red blood cells were depleted with a red blood cell lysis buffer and the remaining cells washed twice with PBS by centrifugation. Alveolar macrophages were then purified from this cell preparation by using a positive selection method for CD14-molecule bearing cells using a VarioMac™ Separator and respective positive selection reagents and columns supplied by Miltenyi Biotec Ltd according to the manufacturer's instruction.
For the assay, alveolar macrophages were resuspended in complete culture medium consisting of RPMI1640 supplemented with 10% foetal calf serum, L-glutamine and antibiotics. The cells were then plated into 24 well plates (4×10^5 cell/well) and incubated overnight at 37° C. with 5% CO2 in air to allow cell adherence. The exhausted medium was then removed from the plates and the plates rinsed briefly with fresh medium before the addition of test compound solutions. The test compounds were incubated with the cells for 30 minutes before the addition of E. Coli LPS (1 μg/ml). The assay plates were incubated in a humidified incubator at 37° C. with 5% CO2 in air for 24 hours. The release of TNFα by the cells into the culture supernatants was quantified using an ELISA kit (DuoSet® human TNFα ELSIA Development System) supplied by R+D Systems (Europe) according to the manufacturer's instruction. Indomethacin at 3 μM was included in all treatments to inhibit the possible release of endogenous prostaglandin E2.

pEC50: −log10 of the molar value. Read-outs that look alike come from different tables or passages of the source.

For `CCCCCC(O)c1ccc(C2CCC(=O)C2CCCCCCC(=O)O)cc1` (racemic) [AH13205, (±)-trans-2-[4-(1-hydroxyhexyl)phenyl]-5-oxo-cyclopentaneheptanoic acid, reference compound], the Ki at human EP1 receptor is 10 µM. The pEC50 is the negative decadic logarithm of the EC50, by convention in mol/L. A word on the EC50: it is the concentration that produces a half-maximal response. As to `CCCCC[C@H](O)c1ccc([C@H]2CCC(=O)[C@@H]2CCCCCCC(=O)O)cc1` (single isomer, unassigned) [Peak 1, Mixture 1 acid], in assay [1] (read-out: Mean EC50), the pEC50 is 5.15. In addition, in assay [1] (log scale, read-out: Mean Log (EC50) (converted)), the half-maximal effective concentration (EC50) was 7.01 µM.
